Reference: article PMC5618406, “New Marine Antifouling Compounds from the Red Alga Laurencia sp” (Marine Drugs, 2017)
Where two headings read alike, the source gives them in different places.

Legend:
[1] = tested on: larvae of the barnacle Amphibalanus amphitrite; test: Antifouling assay against barnacle larvae; format: in vivo; conditions: for toxicity to larvae: at 10 µg/mL
Description: (§1) An antifouling assay against larvae of the barnacle Amphibalanus amphitrite was conducted according to the previous literature. The antifouling assay against diatoms Nitzschia sp. and Cylindrotheca closterium was conducted as follows. The diatoms were maintained in test tubes under 16 h light and 8 h dark cycle conditions at 25 °C in modified Jorgensen’s medium. Pure compounds were applied to a sample zone (16 mm in diameter) of cellulose TLC aluminum sheet (58 × 58 mm), and then each treated sheet was placed in Petri dish (15 × 90 mm in diameter). After that, 25-mL aliquots of modified Jorgensen’s medium were introduced into Petri dishes with treated sheets, and inoculated with 1 mL of cultivated diatom suspension in equivalent cell densities. Petri dishes were sealed with Parafilm to ensure a closed system, and were incubated under the same conditions. Cell growth was estimated daily, and the adhesive condition was evaluated and compared to those of the control after seven days of incubation.

[2] = Antifouling assay against barnacle larvae; format: in vivo; conditions: Amphibalanus amphitrite (barnacle), in vivo, barnacle larvae
Description: as §1

Nitzschia sp. = test: Antifouling (anti-diatom) assay on treated cellulose TLC sheet; format: cell-based; conditions: at 5–10 µg/cm^2, seven days of incubation
Description: as §1

Cylindrotheca closterium = test: as above; format: cell-based; conditions: at 5–10 µg/cm^2, seven days of incubation
Description: as §1

[3] = Amphibalanus amphitrite, barnacle larvae, Table 4, read-out: EC50
[4] = Amphibalanus amphitrite, barnacle larvae, values in text, read-out: antifouling activity EC50
[5] = barnacle larvae, values in text
[6] = values in text, read-out: toxicity LC50
[7] = Amphibalanus amphitrite, barnacle larvae, Table 4, dash entries, read-out: EC50
[8] = Table 4, dash entries, read-out: LC50

Structure (SMILES) | EC50 [1, 3] | EC50 [1, 4] | LC50 [2, 6] | LC50 [2, 8] | further results
CC[C@@H]1[C@@H]2[C@H]3OC(C=C=CBr)C[C@H]3O[C@]2(O)[C@@H](Br)C[C@H]1Br (relative stereo) [Compound 3, hachijojimallene A] | 310 nM | 0.15 to 0.23 µg/mL | 9.8 µg/mL | – | antifouling activity EC50 [1, 5]: 0.15 µg/mL; LC50 ([2]; Table 4, read-out: LC50): 20 µM
CC[C@@H]1[C@@H]2[C@H]3OC(C=C=CBr)C[C@H]3O[C@@]23O[C@@H]1C[C@@H]3Br (relative stereo) [Compound 4, hachijojimallene B] | 760 nM | 0.31 µg/mL | 6.8 µg/mL | – | LC50 ([2]; Table 4, read-out: LC50): 17 µM
CC(C)=CCCC(C)C1(O)CCC2(C)C(Br)CCC(C)(O)C2C1 (centres unmarked) [Compound 1, omaezol] | 590 nM | 0.15 to 0.23 µg/mL | 3.7 µg/mL | – | antifouling activity EC50 [1, 5]: 0.23 µg/mL; LC50 ([2]; Table 4, read-out: LC50): 9.6 µM
CC(C)(Cl)C(Br)CCC(C)(O)C1CCC(C)(C(O)CCC2OC3(C(C)(O)CCC(Br)C(C)(C)Cl)CCC2(C)O3)O1 (centres unmarked) [Compound 2, intricatriol] | – | > 10 µg/mL | – | > 10 µg/mL | EC50 [1, 7]: > 10 µg/mL
Cc1ccc2c(c1)O[C@@]1(C=O)[C@@H](C)CC[C@@]21C [Compound 5, debromoaplysinal] | 4300 nM | 1 µg/mL | – | > 10 µg/mL | toxicity to larvae [1]: did not kill any larvae
CC1=C(/C=C/C(C)=C/CC/C(C)=C/CO)C(C)(C)CC(O)C1 (centres unmarked) [Compound 6, 11,12-dihydro-3-hydroxyretinol] | – | – | – | – | anti-diatom activity (Nitzschia sp.): showed inhibition; anti-diatom activity (Cylindrotheca closterium): showed inhibition
Cc1cc(O)c([C@]2(C)CC[C@@H]3C[C@@]32C)cc1Br [Compound 8, laurinterol] | 2200 nM | 0.65 µg/mL | 5.8 µg/mL | – | LC50 ([2]; Table 4, read-out: LC50): 20 µM
C=C1[C@@H](C)CC[C@@]1(C)c1cc(Br)c(C)cc1O [Compound 9, isolaurinterol] | 1200 nM | 0.34 µg/mL | > 10 µg/mL | > 10 µg/mL | –
Cc1ccc([C@]2(C)CC[C@@H]3C[C@@]32C)c(O)c1 [Compound 10, debromolaurinterol] | 2300 nM | 0.5 µg/mL | > 10 µg/mL | > 10 µg/mL | –
Cc1ccc([C@]2(C)CC[C@@H](Br)C2(C)C)cc1 [Compound 11, α-bromocuparene] | – | – | – | > 10 µg/mL | EC50 [1, 7]: > 10 µg/mL; antifouling activity ([1]; barnacle larvae, result in words): inactive
CC1(C)C(Br)=C[C@H]2O[C@@]2(C)[C@]12C[C@H](Br)[C@@](C)(Cl)C[C@@H]2O [Compound 12, prepacifenol] | 1500 nM | 0.63 µg/mL | > 10 µg/mL | > 10 µg/mL | anti-diatom activity (Nitzschia sp.): showed inhibition; anti-diatom activity (Cylindrotheca closterium): showed inhibition
CC1(C)[C@]23C[C@H](Br)[C@@](C)(Cl)C[C@@H]2O[C@@]1(Br)C=C[C@@]3(C)O [Compound 13, pacifenol] | 5500 nM | 2.36 µg/mL | > 10 µg/mL | > 10 µg/mL | –
CC1=C[C@H](O)[C@@H](Br)C(C)(C)[C@]12CC[C@](C)(Cl)[C@@H](Br)C2 [Compound 14, 2,10-dibromo-3-chloro-9-hydroxy-α-chamigrene] | 6100 nM | 2.51 µg/mL | > 10 µg/mL | > 10 µg/mL | anti-diatom activity (Nitzschia sp.): showed inhibition; anti-diatom activity (Cylindrotheca closterium): showed inhibition
O=S(=O)([O-])[O-].[Cu+2] [CuSO4, reference compound] | – | – | – | – | LC50 ([1]; barnacle larvae, Table 4): 1400 nM; EC50 ([1]; barnacle larvae, Table 4, read-out: EC50): 720 nM; antifouling activity EC50 [1, 5]: 0.18 µg/mL
Cn1c(Br)c(Br)c2ccc(Br)cc21 [N-methyl-2,3,6-tribromoindole] | – | 4.3 µg/mL | – | – | toxicity to larvae [1]: not toxic
